Data reported in US5994629A, “Positive selection” (priority 1991, dated 1999).

Columns and labels:
[1] = target: β-glucuronidase from E. coli (Escherichia coli, UniProt P05804); assay: Hydrolysis by β-glucuronidase (GUS), HPLC/TLC; assay type: biochemical; conditions: for Hydrolysis by β-glucuronidase (GUS), result in words: 50 mM sodium phosphate buffer pH 7.0, 37° C., HPLC/TLC
Procedure: […] […] This confirms the identity of the product as a conjugate of BA and β-D-glucuronic acid.
[…] The presence of hydrolysis products is then determined using HPLC and TLC.

[2] = system: leaf discs of tobacco without (GUS-) introduced β-glucuronidase genes; assay type: cell-based, Nicotiana tabacum 'Wisconsin 38'; conditions: test compounds at several concentrations up to 250 μM in MSO
[3] = system: leaf discs of tobacco with (GUS+) introduced β-glucuronidase genes; assay type: cell-based, Nicotiana tabacum 'Wisconsin 38'; conditions: test compounds at several concentrations up to 250 μM in MSO
[4] = system: sugar beet cotyledon explants; assay: Transformation of sugar beet, positive and negative selection; assay type: cell-based; conditions: 400 mg/l kanamycin sulphate + 1 mg/l BAP (100 explants) or + 15 mg/l BA3GN (177 explants)
Text: Seeds were germinated for 4 days in darkness on a substrate containing 0.7 g/l of agarose and 2 g/l of sucrose. The seedlings were then transferred to a Nunc container containing 1/2×MSO substrate and cultured for 3 days in the light. The cotyledons were removed from the seedlings, and the cotyledon explants were then brushed on the petiole with a small brush containing an Agrobacterium suspension, the Agrobacterium containing 35S-NPTII and 35S-GUS (OD 660=0.1). The cotelydons were then co-cultivatedfor 4 days on a substrate containing 1/10 MSO substrate and 200 μM acetosyringone. […] The regenerated shoots were then transferred to containers containing the same substrate. After 52 days on this substrate all the shoots were transferred to MSO substrate supplemented with 800 mg/l carbenicillin, 25 mg/l vancomycin and 0.1 mg/l BA. After 14 days GUS assays as described in Example 3 were performed on the selected plant material.

[5] = system: hypocotyl explants of winter oil seed rape V486; assay: Transgenic callus from oilseed rape, winter type V486; assay type: cell-based; conditions: 50 mg/l kanamycin sulphate
Procedure: (§1) Experiments were performed as described in Example 11, although with certain modifications. The plant species used were the very recalcitrant breeding lines "V486" of winter oil seed rape and "S487" of summer oilseed rape. Seeds were sterilized and germinated as described in Example 16. Hypocotyls were used as explants and were inoculated and co-cultured as described in Example 11. After co-cultivation the explants were transferred to MSO substrate containing 0.1 mg/l naphthylacetic acid, 0.01 mg/l gibberellic acid (GA3), 500 mg/l carbenicillin, 50 mg/l kanamycin sulphate and 6.0 g/l agarose. The substrate contained in addition either 1 mg/l BA or 3.75, 7.5 or 15.0 mg/l BA3GN sodium salt. The pH was adjusted to 5.8. The Agrobacterium used contained in its T-DNA a GUS gene and a neomycinphosphotransferase II gene driven by 35S promoters. GUS assays were performed after 8 weeks and callus showing an intense blue staining in most of the callus cells was registered as being GUS.

[6] = system: hypocotyl explants of oilseed rape; assay: Transgenic callus from oilseed rape, second section of Table 19; assay type: cell-based
Procedure: as §1

[7] = system: tobacco leaf disc containing an introduced β-glucuronidase gene; assay: Shoot regeneration with sterol glucuronides on tridemorph substrate; assay type: cell-based; conditions: sitosteryl glucuronide 12.5 mg/l and/or cholesteryl glucuronide 50 mg/l; tridemorph 0.1 mM and BA3GN sodium salt (5 mM); 30 days
Wild type explants = assay: Regenerated shoots selected by compounds in addition to mannose, wild type; assay type: cell-based; conditions: genotype Wild type
[8] = system: explants with the mannose 6-phosphate isomerase gene from E. coli; assay: Regenerated shoots selected by compounds in addition to mannose, M-6-P-isomerase; assay type: cell-based; conditions: genotype M-6-P-isomerase
[9] = target: T1, GUS activity in plant tissue (Escherichia coli, UniProt P05804); assay: Histological GUS reaction (X-gluc) in plant species with saccharo 1,4-lactone; assay type: cell-based; conditions: saccharo 1,4-lactone 10 mM, pH 3-8, transgenic (1), GUS gene from E. coli
T1 construct: from tissue; host or cells: leaves of a number of plant species

[10] = system: GUS activity in plant tissue; assay: as above; assay type: cell-based; conditions: saccharo 1,4-lactone 10 mM, pH 3-8
[11] = system: non-transformed potato stem segments; assay: Inhibition by mannose of regeneration of shoots; assay type: cell-based, Solanum tuberosum
Procedure: This substrate is referred to hereafter as "selection/regeneration substrate". Regenerated plants are produced as described above, except that the shoot segments are not co-cultured with bacteria and the washing procedure consequential thereon is omitted. […] In general, mannose cannot be used as a carbohydrate source in most plant species. When mannose is added to plants it is metabolized and mannose 6-phosphate accumulates. Mannose 6-phosphate can be converted to fructose 6-phosphate by mannose 6-phosphate isomerase, the amount converted being dependent upon the activity of the isomerase. Such fructose 6-phosphate may be utilized by plants, but in principal high levels of mannose (whether or not an alternative carbohydrate source is available) are toxic to plants.

[12] = system: plant material transgenic for the mannose 6-phosphate isomerase gene; assay: Effect of methyl-3-O-glucose on selection of transgenic shoots on mannose; assay type: cell-based; conditions: mannose 15 g/l; MOG 0 g/l; no sucrose
Text: The transformed plant material is transgenic for the mannose 6-phosphate isomerase gene. After 21 days the selected shoots are harvested.

immature maize embryos = assay: Mannose selection of bombarded immature maize embryos; assay type: cell-based; conditions: selection on 10 g/L D-mannose for 3 weeks; 420 embryos
maize protoplasts = assay: Mannose selection in maize protoplast PEG-mediated transformation; assay type: cell-based; conditions: 2% mannose for one to two weeks; 47/17 million protoplasts
maize callus cultures = conditions: callus cultures of 4 maize lines; 0-20 g/L; three weeks

Sequence of β-glucuronidase from E. coli (P05804 whole entry, looked up): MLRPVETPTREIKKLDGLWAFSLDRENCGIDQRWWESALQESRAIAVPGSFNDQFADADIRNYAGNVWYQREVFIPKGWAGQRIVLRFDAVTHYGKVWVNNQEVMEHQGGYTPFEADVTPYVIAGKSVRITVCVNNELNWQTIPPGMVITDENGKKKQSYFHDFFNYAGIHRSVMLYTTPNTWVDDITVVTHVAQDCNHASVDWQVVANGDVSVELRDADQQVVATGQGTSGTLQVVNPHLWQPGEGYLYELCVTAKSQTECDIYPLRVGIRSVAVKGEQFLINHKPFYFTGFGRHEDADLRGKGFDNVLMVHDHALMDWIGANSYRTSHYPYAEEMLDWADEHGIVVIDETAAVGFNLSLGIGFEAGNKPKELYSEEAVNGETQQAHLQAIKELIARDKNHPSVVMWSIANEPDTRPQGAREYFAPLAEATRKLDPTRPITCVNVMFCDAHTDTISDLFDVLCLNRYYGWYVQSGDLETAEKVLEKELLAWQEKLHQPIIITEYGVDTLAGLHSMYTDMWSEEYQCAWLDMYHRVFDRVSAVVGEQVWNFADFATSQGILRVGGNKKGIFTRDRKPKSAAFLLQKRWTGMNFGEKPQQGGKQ
T1 sequence (P05804 whole entry): as the sequence (P05804 whole entry, looked up) above

O=C([O-])[C@H]1O[C@@H](n2cnc(NCc3ccccc3)c3ncnc2-3)[C@H](O)[C@@H](O)[C@@H]1O.[Na+]
Hydrolysis by β-glucuronidase (GUS), result in words [1]: virtually complete removal
removal of the glucuronide by GUS ([1]; 2500 Fishman units, 12 hours, 37° C., HPLC and TLC): > 99%
Shoot formation, GUS- [2]: + ("+" means shoot formation at concentrations below 250 μM)
Shoot formation, GUS+ [3]: + ("+" means shoot formation at concentrations below 250 μM)
GUS+ Shoots [4]: 4
GUS+ shoots (%) [4]: 2.3%
GUS+ callus per callus ([5]; BA3GN 3.75 mg/l): 7.1%
GUS+ callus per explant ([5]; BA3GN 3.75 mg/l): 1.4%
Explants with callus ([5]; BA3GN 3.75 mg/l, 8 weeks): 19.0%
Explants with callus ([5]; BA3GN 7.5 mg/l): 23.0%
GUS+ callus per callus ([5]; BA3GN 7.5 mg/l): 5.9%
GUS+ callus per explant ([5]; BA3GN 7.5 mg/l): 1.4%
Explants with callus ([5]; BA3GN 15.00 mg/l): 30.6%
GUS+ callus per callus ([5]; BA3GN 15.00 mg/l): 7.5%
GUS+ callus per explant ([5]; BA3GN 15.00 mg/l): 2.3%
GUS+ callus per callus ([6]; BA3GN 3.75 mg/l): 33.3%
GUS+ callus per explant ([6]; BA3GN 3.75 mg/l): 1.7%
Explants with callus ([6]; BA3GN 3.75 mg/l, 50 mg/l kanamycin sulphate): 5.2%
Explants with callus ([6]; BA3GN 7.5 mg/l): 9.2%
GUS+ callus per callus ([6]; BA3GN 7.5 mg/l): 25.0%
GUS+ callus per explant ([6]; BA3GN 7.5 mg/l): 2.3%
Explants with callus ([6]; BA3GN 15.00 mg/l): 6.3%
GUS+ callus per callus ([6]; BA3GN 15.00 mg/l): 14.2%
GUS+ callus per explant ([6]; BA3GN 15.00 mg/l): 0.9%

O=C([O-])[C@H]1O[C@@H](n2cnc3c(NCc4ccccc4)ncnc32)[C@H](O)[C@@H](O)[C@@H]1O.[Na+] [BA9GN sodium salt, 9-β-D-glucopyranuronosyl-6-benzylaminopurine, sodium salt]
Hydrolysis by β-glucuronidase (GUS), result in words [1]: no detectable production of BA
production of BA after incubation with β-glucuronidase ([1]; 18 hours at 37° C.): < 1%
Shoot formation, GUS- [2]: - ("-" means no shoot formation at concentrations below 250 μM)
Shoot formation, GUS+ [3]: - ("-" means no shoot formation at concentrations below 250 μM)
acid hydrolysis (Chemical stability; 1 mg/ml, 1M hydrochloric acid at 100° C. overnight, TLC): acid-labile

c1ccc(CNc2ncnc3nc[nH]c23)cc1 [BA, N^6 -benzyladenine]
Shoot formation, GUS- [2]: + ("+" means shoot formation at concentrations below 250 μM)
Shoot formation, GUS+ [3]: + ("+" means shoot formation at concentrations below 250 μM)
GUS+ Shoots [4]: 0
GUS+ shoots (%) [4]: 0%
Explants with callus ([5]; BA 1 mg/l): 0%
GUS+ callus per callus ([5]; BA 1 mg/l): 0%
GUS+ callus per explant ([5]; BA 1 mg/l): 0%
Explants with callus ([6]; BA 1 mg/l): 0%
GUS+ callus per callus ([6]; BA 1 mg/l): 0%
GUS+ callus per explant ([6]; BA 1 mg/l): 0%

CC(C)CCC[C@@H](C)[C@H]1CC[C@H]2[C@@H]3CC=C4C[C@@H](O[C@@H]5O[C@H](C(=O)O)[C@@H](O)[C@H](O)[C@H]5O)CC[C@]4(C)[C@H]3CC[C@]12C [Choesteryl-β-D-glucuronide, cholesteryl-β-D-glucuronide]
Shoots per leaf disc [7]: 0.3

N[C@@H]1C(O)O[C@H](CO)[C@@H](O)[C@@H]1O (stereo partly drawn) [D-mannosamine]
Number of regenerated shoots per explant (Wild type explants): 0
Number of regenerated shoots per explant [8]: 0.8

O=P(O)(O)OC[C@H]1OC(O)[C@@H](O)[C@@H](O)[C@@H]1O (stereo partly drawn) [D-mannose-6-phosphate]
Number of regenerated shoots per explant (Wild type explants): 0
Number of regenerated shoots per explant [8]: 0.7

O=C(O)[C@@H](O)[C@H]1OC(=O)[C@H](O)[C@H]1O [Saccharo 1,4-lactone]
Histological GUS reaction ([9]; Sugar beet): (+)
Histological GUS reaction ([9]; Tobacco): 0
Histological GUS reaction ([10]; Oilseed rape): 0
Histological GUS reaction ([10]; Oxalis, stem or petiole): 0
Histological GUS reaction ([10]; Pea, stem or petiole): 0
Histological GUS reaction ([10]; Rhubarb, stem or petiole): 0
Histological GUS reaction ([10]; Sitka spruce, embryogenic callus): 0
Histological GUS reaction ([10]; Sugar beet, transgenic (2), NPT only): 0
Histological GUS reaction ([10]; Sugar beet, wild type): 0
Histological GUS reaction ([10]; Tobacco): 0
Histological GUS reaction ([10]; Tobacco, transgenic (2), NPT only): 0
Histological GUS reaction ([10]; Wheat, albino): 0
stability at the pH of the substrate (Chemical stability; equilibrium with saccharic acid): not a stable compound

CC[C@H](CC[C@@H](C)[C@H]1CC[C@H]2[C@@H]3CC=C4C[C@@H](O[C@@H]5O[C@H](C(=O)O)[C@@H](O)[C@H](O)[C@H]5O)CC[C@]4(C)[C@H]3CC[C@]12C)C(C)C [Sitosteryl-β-D-glucuronide, β-sitosteryl-β-D-glucuronidide]
Shoots per leaf disc [7]: 2.8

O=C[C@@H](O)[C@@H](O)[C@H](O)[C@H](O)CO [mannose, D-mannose]
Regenerated shoots/explant (%) ([11]; sucrose 0 g/l, mannose 5 g/l, up to 40th day): 0%
Regenerated shoots/explant (%) ([11]; sucrose 0 g/l, mannose 10 g/l): 0%
Regenerated shoots/explant (%) ([11]; sucrose 0 g/l, mannose 20 g/l): 0%
Regenerated shoots/explant (%) ([11]; sucrose 10 g/l, mannose 5 g/l): 3%
Regenerated shoots/explant (%) ([11]; sucrose 10 g/l, mannose 10 g/l): 0%
Regenerated shoots/explant (%) ([11]; sucrose 10 g/l, mannose 20 g/l): 0%
Regenerated shoots/explant (%) ([11]; sucrose 20 g/l, mannose 5 g/l): 0%
Regenerated shoots/explant (%) ([11]; sucrose 20 g/l, mannose 10 g/l): 0%
Regenerated shoots/explant (%) ([11]; sucrose 20 g/l, mannose 20 g/l): 0%
GUS+ shoots/explant [12]: 0
GUS+ shoots/sel. shoots (%) [12]: 0%
Number of regenerated shoots per explant (Wild type explants): 0
Number of regenerated shoots per explant [8]: 1.1
% transformation (immature maize embryos): 2.9%
stable transformation frequency (maize protoplasts): 0.00028%
utilization as carbohydrate source, in words (maize callus cultures): cannot be utilized as the sole carbohydrate source
